Reference: ChEMBL document CHEMBL4513148, “CO-ADD screening of Stellenbosch University (South Africa) compounds”
Values after ≈ are worked out from the molar mass of the structure shown.

Experiments:
[1] = test system: HEK293; assay: cells; type: functional; conditions: Homo sapiens, ATCC CRL1573, HEK293; ASSAY_TEST Inhibition of Cell Viability; detection method Resazurin; Fluorescence (ex560/em590); MEDIA DMEM with 10% FBS; plate type 384well; TC; CORNING #3712; time 18 hr
[2] = test system: Pseudomonas aeruginosa; assay: microbe, parasite or virus in culture; conditions: ATCC 27853, 18 h, ASSAY_TEST Inhibition of Bacterial Growth, detection method Absorption (OD600), MEDIA CAMHB, plate type 384well, NBS, CORNING #3640
Description: Antibacterial activity against Pseudomonas aeruginosa ATCC 27853 (CO-ADD:GN_042); MIC in CAMBH media using NBS plates, by OD(600)

[3] = test system: Staphylococcus aureus; assay: microbe, parasite or virus in culture; conditions: ATCC 43300, 18 h, ASSAY_TEST Inhibition of Bacterial Growth, detection method Absorption (OD600), MEDIA CAMHB, plate type 384well, NBS, CORNING #3640
Description: Antibacterial activity against Staphylococcus aureus MRSA ATCC 43300 (CO-ADD:GP_020); MIC in CAMBH media, using NBS plates, by OD(600)

[4] = test system: Klebsiella pneumoniae; assay: microbe, parasite or virus in culture; conditions: ATCC 700603, 18 h, ASSAY_TEST Inhibition of Bacterial Growth, detection method Absorption (OD600), MEDIA CAMHB, plate type 384well, NBS, CORNING #3640
Description: Antibacterial activity against Klebsiella pneumoniae MDR ATCC 70063 (CO-ADD:GN_003); MIC in CAMBH media using NBS plates, by OD(600)

[5] = test system: Acinetobacter baumannii; assay: microbe, parasite or virus in culture; conditions: ATCC 19606, 18 h, ASSAY_TEST Inhibition of Bacterial Growth, detection method Absorption (OD600), MEDIA CAMHB, plate type 384well, NBS, CORNING #3640
Description: Antibacterial activity against Acinetobacter baumannii ATCC 19606 (CO-ADD:GN_034); MIC in CAMBH media using NBS plates, by OD600

[6] = test system: Escherichia coli; assay: microbe, parasite or virus in culture; conditions: ATCC 25922, 18 h, ASSAY_TEST Inhibition of Bacterial Growth, detection method Absorption (OD600), MEDIA CAMHB, plate type 384well, NBS, CORNING #3640
Description: Antibacterial activity against Escherichia coli ATCC 25922 (CO-ADD:GN_001); MIC in CAMBH media using NBS plates, by OD(600)

[7] = test system: Candida albicans; assay: microbe, parasite or virus in culture; conditions: ATCC 90028, ASSAY_TEST Inhibition of Fungal Growth, detection method Absorption (OD530), plate type 384well, NBS, CORNING #3640
Description: Antifungal activity against Candida albicans ATCC 90028 (CO-ADD:FG_001); MIC in YNB media using NBS plates, by OD630

[8] = test system: Cryptococcus neoformans
Description: Antifungal activity against Cryptococcus neoformans H99 ATCC 208821 (CO-ADD:FG_002); MIC in YNB media using NBS plates, by Resazurin OD(600-570)

CCCCCCCNC(=O)CCNC(=O)[C@H](O)C(C)(C)CO
CC50 [1]: > 32 µg/mL
MIC [2]: > 32 µg/mL
MIC [3]: 0.5 µg/mL (≈ 1.58 µM)
MIC [4]: > 32 µg/mL
MIC [5]: > 32 µg/mL
MIC [6]: > 32 µg/mL
MIC [7]: > 32 µg/mL
MIC [8]: > 32 µg/mL

CC(C)(CO)[C@@H](O)C(=O)NCCC(=O)NCCc1ccccc1
CC50 [1]: > 32 µg/mL
MIC [2]: > 32 µg/mL
MIC [3]: 32 µg/mL (≈ 99.3 µM)
MIC [4]: > 32 µg/mL
MIC [5]: > 32 µg/mL
MIC [6]: > 32 µg/mL
MIC [7]: > 32 µg/mL
MIC [8]: > 32 µg/mL

CCCCCCCNC(=O)/C=C/NC(=O)[C@H](O)C(C)(C)CO
CC50 [1]: > 32 µg/mL
MIC [2]: > 32 µg/mL
MIC [3]: > 32 µg/mL
MIC [4]: > 32 µg/mL
MIC [5]: > 32 µg/mL
MIC [6]: > 32 µg/mL
MIC [7]: > 32 µg/mL
MIC [8]: > 32 µg/mL

CCCCCCCNC(=O)CCNC(=O)C(O)C(C)(C)CN (stereo not given)
CC50 [1]: > 32 µg/mL
MIC [2]: > 32 µg/mL
MIC [3]: > 32 µg/mL
MIC [4]: > 32 µg/mL
MIC [5]: > 32 µg/mL
MIC [6]: > 32 µg/mL
MIC [7]: > 32 µg/mL
MIC [8]: > 32 µg/mL

CCCCCCCNC(=O)CCNC(=O)[C@H](O)C(C)(C)COP(=O)(O)O
CC50 [1]: > 32 µg/mL
MIC [2]: > 32 µg/mL
MIC [3]: > 32 µg/mL
MIC [4]: > 32 µg/mL
MIC [5]: > 32 µg/mL
MIC [6]: > 32 µg/mL
MIC [7]: > 32 µg/mL
MIC [8]: > 32 µg/mL

CN(CCc1ccccc1)C(=O)CCNC(=O)[C@H](O)C(C)(C)CO
CC50 [1]: > 32 µg/mL
MIC [2]: > 32 µg/mL
MIC [3]: > 32 µg/mL
MIC [4]: > 32 µg/mL
MIC [5]: > 32 µg/mL
MIC [6]: > 32 µg/mL
MIC [7]: > 32 µg/mL
MIC [8]: > 32 µg/mL

CCCCCCCNC(=O)CC(C)NC(=O)[C@H](O)C(C)(C)CO (stereo not given in full)
CC50 [1]: > 32 µg/mL
MIC [2]: > 32 µg/mL
MIC [3]: > 32 µg/mL
MIC [4]: > 32 µg/mL
MIC [5]: > 32 µg/mL
MIC [6]: > 32 µg/mL
MIC [7]: > 32 µg/mL
MIC [8]: > 32 µg/mL

CCCCCCCNC(=O)C(C)CNC(=O)[C@H](O)C(C)(C)CO (stereo not given in full)
CC50 [1]: > 32 µg/mL
MIC [2]: > 32 µg/mL
MIC [3]: > 32 µg/mL
MIC [4]: > 32 µg/mL
MIC [5]: > 32 µg/mL
MIC [6]: > 32 µg/mL
MIC [7]: > 32 µg/mL
MIC [8]: > 32 µg/mL

CCCCCCCN(C)C(=O)CCNC(=O)[C@H](O)C(C)(C)CO
CC50 [1]: > 32 µg/mL
MIC [2]: > 32 µg/mL
MIC [3]: > 32 µg/mL
MIC [4]: > 32 µg/mL
MIC [5]: > 32 µg/mL
MIC [6]: > 32 µg/mL
MIC [7]: > 32 µg/mL
MIC [8]: > 32 µg/mL

CC(CNC(=O)[C@H](O)C(C)(C)CO)C(=O)NCCc1ccccc1 (stereo not given in full)
CC50 [1]: > 32 µg/mL
MIC [2]: > 32 µg/mL
MIC [3]: > 32 µg/mL
MIC [4]: > 32 µg/mL
MIC [5]: > 32 µg/mL
MIC [6]: > 32 µg/mL
MIC [7]: > 32 µg/mL
MIC [8]: > 32 µg/mL
